Patent US20260308158A1, “TARGETING RNAS ASSOCIATED WITH TAUOPATHIES WITH SMALL MOLECULES” (University of Florida Research Foundation, Incorporated, priority 2023, published 2026)
Like-named read-outs stand apart in the source and are kept apart here.

Key:
[1] = system: LAN5 transcriptome; assay: RNA-seq transcriptome-wide selectivity in LAN5 cells; format: cell-based, human
Description: RNA-Seq. LAN5 cells in 12-well plate (~60% confluency) were treated with 2 (1.5 μM), 0.1% (v/v) DMSO (vehicle), 4R-to-3R tau ASO (0.5 μM), or scrambled ASO (0.5 μM) for 48 h. Total RNA was extracted using an RNeasy Mini Kit (Qiagen) per the manufacturer's protocol. Next, rRNA was depleted using NEBNext rRNA depletion modules (E6310L, New England Biosciences) and prepared with NEBNext Ultra II Dir RNA Lib Prep Kit (E7760S, New England Biosciences) according to the manufacturer's protocol. The prepared libraries were processed with NextSeq 500/550 High Output Kit v2.5 (Illumina, 20024907) per the manufacturer's protocol and then sequenced on a NextSeq 500. After sequencing, the BCL files were converted to FASTQ files using basemount/0.12.8.1516 and bcl2fastq/2.17.1.14.^33 The sequencing depth was over 82 million for each sample.
FastQC^34 and RSeQC^35 were used to determine the quality of reads and any overrepresentation of sequences. HISAT2^36 was used to map the reads to the reference human genome (hg19), and the output SAM files were converted to BAM files and sorted by index. Kallisto^37 and NCBI reference sequences (RefSeq)^38 were used for gene quantification to calculate transcripts per million (TPM). Differentially expressed genes were detected with Sleuth^39 and determined by a multiple test corrected p-value<0.05. Splicing event PSI values were quantitated using MISO.^40

[2] = Body weight / tolerability, WT mice; format: in vivo, WT mouse (C57BL/6J); conditions: 100 mg/kg p.o. q.o.d., 20 days
Text: hTau Mice Studies. htau mice and WT mice (C57BL/6J) were purchased from Jackson Laboratories. htau mice were maintained in-house through breeding between htau+/− mice. Genotype was confirmed by PCR amplification as previously described.^18 Only homozygous mice were used in in vivo studies. Mice were randomly assigned to a treatment group, which were age- and gender-matched (n=X). In these studies, mice were >9 months of age since cognitive and physiological impairments in htau mice was age-dependent and were not presented in young mice (<4 months) with early-stage tau pathology.^42 Mice were orally administered vehicle (5/5/90 DMSO/Tween-80/H2O) or 100 mg/kg of 2 in the same formulation every other day (q.o.d.). During the treatment period, nesting activity was assessed, as describe in Nesting Activity below. After 20 days, the mice were euthanized (in accordance with guidelines provided by the American Veterinarian Medical Association), and the brain was harvested for analysis. One hemisphere of the brain was frozen at −80° C. for RT-qPCR analyses while the other was used for histological studies.

[3] = Plasma and brain exposure in mice; format: in vivo, C57BL/6J mouse; conditions: mouse, po, 100 mg/kg p.o., C57BL/6J mice
Description: Quantitation of 2 in Mouse Plasma and Brain. Male C57BL/6J mice (n=3 per time point; 5-7 weeks) were orally administered with 2 (100 mg/kg) in a formulation of DMSO/Tween-80/H2O (5/5/90). After 2, 12, 24, and 48 h, mice were euthanized, and blood and brain were collected. Brains were immediately frozen. Blood was centrifuged to generate plasma and immediately frozen. On the day of analysis, brains were homogenized, mixed with a 5-times volume of acetonitrile, and filtered. The plasma was also filtered. Drug levels were determined by mass spectrometry using an ABSciex 5500 mass spectrometer with multiple reaction monitoring. Compound 2 was detected using the mass transition 435->236.

[4] = format: physicochemical; conditions: not tested for this reason
[5] = Cell viability (WST-1), untransfected HeLa cells; format: cell-based; conditions: human, hela cells, 12.5 μM, WST-1, read-out: reduction of viability of HeLa cells
Description: (§1) Cell Viability. Cells were treated with DMSO (vehicle) or compound 2 for 48 h at 37° C. After the removal of the DMSO or compound-containing growth medium, the cells were washed with 1×DPBS and incubated in growth medium containing 10% (v/v) WST-1 cell proliferation reagent (Roche) or CellTiter Fluor (Promega; per the manufacturer's recommend protocol) for 40 min. The absorbance of the solution was measured at 450 and 650 nm with a SpectraMax M5 plate reader (Molecular Devices) for cells treated with WST-1. The background signal at 650 nm was subtracted from the WST-1 signal at 450 nm for analysis. For cells treated with CellTiter Fluor, the fluorescence was measured with 390 nm excitation and 505 nm emission wavelengths. Cells treated with a compound were compared to vehicle treated cells to determine the effect of the compound on cell viability.

[6] = system: HeLa cells; assay: Cell viability (WST-1), untransfected HeLa cells; format: cell-based; conditions: up to 12.5 μM, 48 h
Description: as §1

[7] = system: DDPAC I17T MAPT exon 10 mini-gene luciferase reporter; assay: Luciferase reporter assay, DDPAC I17T mutant mini-gene in HeLa cells; format: cell-based; conditions: Homo sapiens, 48 h, 5 μM (highest dose), read-out: reduction of luciferase activity
Description: Luciferase-reporter Assay to Study Exon 10 Alternative Splicing. The exon 10 mini-genes, both WT and DDPAC and mutant thereof, fused to firefly luciferase, have been previously described.^18 HeLa cells were seeded in 60 mm diameter dishes and incubated for 12-16 h to 70% confluency. They were then transfected with WT, WT+I17T, DDPAC, or DDPAC+I17T luciferase reporter minigenes using JetPrime (Polyplus Transfection) per the manufacturer's recommended protocol and incubated for 4 h. After transfection, the cells were collected by trypsinization and re-seeded in 96-well plates at 0.2×10^5 cells per well, followed by treatment of compounds after 4 h. Compound stocks prepared in DMSO were diluted in growth medium and added to cells with final DMSO concentration at 0.1% (v/v). After a 48 h treatment period, the cells were washed with 1× DPBS. Each well was added with a mixture of 10 μL WST-1 reagent and 90 μL of growth medium. After incubation at 37° C. for 45 min, absorbance was measured at 450 and 690 nm. A690 as background was subtracted from A450 to obtain A450′. […] The plate was incubated at room temperature for 20 min and the luminescence was measured with a […] plate reader (1000 ms integration time). The resulted luminescence was normalized to A450′.

concentration at 48 h ([3]; brain, read-out: brain concentration): 2900 ± 1600 nM
concentration at 48 h ([3]; plasma, read-out: plasma concentration): 500 ± 300 nM
solubility at 200 μM [4]: insolubility
Compound: COc1cc(N)ncc1CCCN(C)CCCn1cnc2c3ccccc3n(C)c2c1=O [Compound 2, 3-(3-((3-(6-amino-4-methoxypyridin-3-yl)propyl)(methyl)amino)propyl)-5-methyl-3,5-dihydro-4H-pyrimido[5,4-b]indol-4-one]
expression of MAPT gene ([1]; 2 at 1.5 μM or ASO 0.5 μM): Neither 2 nor the ASO altered the expression of MAPT gene
alternative splicing of MAPT exons (exon 10) ([1]; 2 at 1.5 μM or tau ASO 0.5 μM): only one significantly reduced
genes unchanged, percent ([1]; 2 at 1.5 μM, 48 h): 99.73%
change in weight [2]: no change in the weight
cytotoxicity at 48 h, 12.5 µM [5]: 17 ± 3%
effect on viability of HeLa cells [6]: No effect on the viability
inhibition at 5 µM [7]: ~15%
